Where two headings read alike, the source gives them in different places. Numbered stars: 1 amine (or outer) side, 2 acyl side, 3 side chain; on linkers, the order of the positions; unused ones are H or OH. Bridge positions count the residues as written; N and C are the ends. Square brackets hold non-standard residues; d marks the D form. Peptide text beside a SMILES is read from it. I, II: the chains in the order shown. Actinocin(9to1) = Cc1c2oc3c(C)ccc(C(=O)[*:1])c3nc-2c(C(=O)[*:2])c(N)c1=O; NMeV = CN[C@H](C(=O)O)C(C)C; Sar = CNCC(=O)O
Legend:
[1] = tested on: Jurkat cells; assay: MTT assay in the presence of the caspase inhibitor Z-VAD-fmk; assay type: cell-based, human; conditions: Z-VAD-fmk 15 μM 3 h, then compound 12.5 μM for 24 h
Description: We, therefore, selected Jurkat cells to study the cell death mechanism in detail, in this work. Programmed cell death (PCD) is generally classified into several types such as apoptosis, necroptosis, paraptosis, autophagic cell death, and so on.[30]−[33] We hypothesized that 1 and 2 function as inducers of apoptosis, which is a type of PCD in cancer cells, based on the morphological change of Jurkat cells observed in Figure 1 and mechanism of chelation therapy proposed in the previous studies.[11]−[19] It is known that the caspases family are cysteine proteases that play important roles in apoptosis and necroptosis.[38] Therefore, the effect of Z-VAD-fmk, which is known as one of general caspase inhibitors, on the cell death induced by 1 and cisplatin was examined.
Figure 3 Effect of Z-VAD-fmk on the cell death in Jurkat cells induced by 1. Jurkat cells were incubated in RPMI in the presence of Z-VAD-fmk (15 μM) for 3 h and then treated with (a) 1 (1 μM) and (b) cisplatin (50 μM) for 24 h. Asterisks indicate significant difference with *(P ≤ 0.05).
To investigate the mechanism responsible for the BAPTA-AM-induced cell death in Jurkat cells, Jurkat cells were incubated with Z-VAD-fmk (15 μM) for 3 h, and then cells were treated with BAPTA-AM (12.5 μM) for 24 h followed by an MTT assay.
IMR-90 cells in DMEM medium with 10% FBS (1.5 × 10^5 cells/mL) were seeded in to 96 well plates and incubated for 24 h at 37 °C, MTT assays with poly(bpy) ligands and their metal complexes (0–100 μM), cisplatin (0–100 μM), and actinomycin D (0–10 μM) were performed following the same procedure described above. These experiments were carried out at least three times. • (b) MTT assay in the presence of a caspase inhibitor. […]

[2] = tested on: MOLT-4 cells; assay: MTT assay, cytotoxicity against MOLT-4 cells; assay type: cell-based, human; conditions: Homo sapiens, read-out: EC50 against MOLT-4
Experimental: (§1) Second, we conducted the quantitative evaluation of the cytotoxicity of 1, 2, and 3 against various cancer cell lines by an MTT (3-(4,5-dimethylthiazol-2-yl)-2,5-diphenyltetrazolium bromide) assay. Jurkat, MOLT-4 (these two cell lines are human T-lymphocyte leukemia cells), and U937 (human lymphoma) cells (1.5 × 10^4 cells/well) were incubated in RPMI 1640 medium containing 10% FBS (fetal bovine serum) containing 1, 2, and 3 (0–25 μM) at 37 °C for 24 h, and then treated with the MTT reagent. A549 (human alveolar adenocarcinoma) and IMR-90 (normal human fetal lung fibroblast as model of normal cells) cells (1.5 × 10^4 cells/well) were incubated in DMEM (low glucose) with 10% FBS containing 1, 2, and 3 (0–25 μM), HeLa S3 (human epithelial carcinoma cells) cells (1.5 × 10^4 cells/well) were incubated in MEM with 10% FBS containing these ligands (0–25 μM) for 24 h at 37 °C and then treated with the MTT reagent.
(§2) • (a) Cytotoxic study. Jurkat cells, MOLT-4 cells, and U937 cells (1.5 × 10^5 cells/mL per one well) were incubated in 10% FBS RPMI 1640 medium containing 1 (0–25 μM), 2 (0–25 μM) , 3, cisplatin (0–100 μM), and actinomycin D (0–10 μM) under 5% CO2 at 37 °C for 24 h on 96 well plates (Watson), 0.5% MTT (3-(4,5-dimethyl-2-thiazolyl)-2,5-diphenyl-2H-tetrazolium bromide) reagent in PBS (10 μL) was then added to the cells. After incubation at 37 °C for 4 h, a formazan lysis solution (10% SDS in 0.01 N HCl) (100 μL) was added and the resulting solution was incubated overnight under the same conditions, followed by the measurement of absorbance at 570 nm with a microplate reader (BIO-RAD).

[3] = tested on: U937 cells; assay: MTT assay, cytotoxicity against U937 cells; assay type: cell-based, human; conditions: Homo sapiens, read-out: EC50 against U937
Experimental: as §1, §2

[4] = tested on: Jurkat cells; assay: MTT assay of Jurkat cells, effect of metal ions and incubation time on cytotoxicity of ligands; assay type: cell-based, human
Experimental: Next, we examined the effect of complexation of 1, 2, BAPTA, and BAPTA-AM with metal ions such as Cu(NO3)2, Zn(NO3)2, FeSO4, Co(NO3)2, and NiSO4 on their cytotoxicity against Jurkat cells. Mixture of ligands and metal ions were incubated for 1 h at 37 °C, and added to Jurkat cells for incubation for 12, 24, and 48 h at [ligand] = 0.78–25 μM and [M^2+] = 1.71–37.5 μM ([ligand]: [M^2+] = 1:1.5). After that, MTT assays were carried out, as shown in Figure S3 of the Supporting Information.
(§3) IMR-90 cells in DMEM medium with 10% FBS (1.5 × 10^5 cells/mL) were seeded in to 96 well plates and incubated for 24 h at 37 °C, MTT assays with poly(bpy) ligands and their metal complexes (0–100 μM), cisplatin (0–100 μM), and actinomycin D (0–10 μM) were performed following the same procedure described above. These experiments were carried out at least three times. • (b) MTT assay in the presence of a caspase inhibitor. Jurkat cells were pre-treated with Z-VAD-fmk (15 μM) for 3 h, a general caspases inhibitor, followed by the treatment with 1 (1 μM), BABTA-AM (12.5 μM) and cisplatin (50 μM), respectively, for 24 h, and then MTT assay was carried out as described above. • (c) For evaluation of the effect of metal ions on the cytotoxicity of 1, 2, BAPTA, and BAPTA-AM, these ligands were incubated with metal ions such as Cu(NO3)2, Zn(NO3)2, FeSO4, Co(NO3)2, and NiSO4 for 1 h, respectively, and added to Jurkat cells. The whole mixtures were incubated for 12, 24, and 48 h at [ligand] = 0.78–25 μM and at [M^2+] = 1.71–37.5 μM ([ligand]/[M^2+] = 1:1.5). The MTT assays were conducted as described above.

[5] = tested on: HeLa S3 cells; assay: MTT assay, cytotoxicity against HeLa S3 cells; assay type: cell-based, human; conditions: Homo sapiens
Experimental: Second, we conducted the quantitative evaluation of the cytotoxicity of 1, 2, and 3 against various cancer cell lines by an MTT (3-(4,5-dimethylthiazol-2-yl)-2,5-diphenyltetrazolium bromide) assay. Jurkat, MOLT-4 (these two cell lines are human T-lymphocyte leukemia cells), and U937 (human lymphoma) cells (1.5 × 10^4 cells/well) were incubated in RPMI 1640 medium containing 10% FBS (fetal bovine serum) containing 1, 2, and 3 (0–25 μM) at 37 °C for 24 h, and then treated with the MTT reagent. […]
(§4) HeLa S3 cells and A549 cells in MEM and DMEM medium with 10% FBS (1.5 × 10^5 cells/mL per one well) were seeded in to 96 well plates and incubated for 24 h, MTT assay of poly(bpy) ligands (0–25 μM), cisplatin (0–100 μM), and actinomycin D (0–10 μM) was performed according to the same procedure described above.

[6] = tested on: IMR-90 cells; assay: MTT assay, cytotoxicity against IMR-90 cells (model of normal cells); assay type: cell-based, human; conditions: Homo sapiens, read-out: EC50 against IMR-90
Experimental: as §1, §3

[7] = tested on: Jurkat cells; assay: MTT assay, cytotoxicity against Jurkat cells; assay type: cell-based, human; conditions: Homo sapiens, Jurkat
Experimental: as §1, §2

[8] = tested on: A549 cells; assay: MTT assay, cytotoxicity against A549 cells; assay type: cell-based, human; conditions: Homo sapiens, A549, 37 °C, treated for 24 h
Experimental: as §1, §4

[9] = tested on: MOLT-4 cells; set-up: method as in earlier work; conditions: ref 52 (Morita et al., Oncotarget 2013); read-out: EC50, cytotoxicity against MOLT-4 cells; cited from earlier work
[10] = MOLT-4, MTT, 37 °C, treated for 24 h
[11] = U-937, MTT, 37 °C, treated for 24 h
[12] = Homo sapiens, Jurkat, no metal, incubation 48 h (Figure 9, S4), read-out: EC50 against Jurkat cells, metal-free ligand
[13] = HeLa S3, MTT, 37 °C, treated for 24 h, read-out: EC50 against HeLa S3 (converted)
[14] = IMR-90, MTT, 37 °C, treated for 24 h
[15] = MTT, 37 °C, treated for 24 h, read-out: EC50 against Jurkat (converted)

melting point	Compound	EC50 [2, 10]	EC50 [3, 11]	EC50 [4, 12]	EC50 [5, 13]	EC50 [6, 14]	EC50 [7, 15]	EC50 [8]	further results
	CC(=O)OCOC(=O)CN(CC(=O)OCOC(C)=O)c1ccccc1OCCOc1ccccc1N(CC(=O)OCOC(C)=O)CC(=O)OCOC(C)=O [BAPTA-AM, reference compound]	13.2 ± 0.2 µM	7.1 ± 0.4 µM	7.9 µM	> 50 µM	> 50 µM	8.6 ± 0.3 µM	> 50 µM	cell viability of Jurkat cells after preincubation with Z-VAD-fmk [1]: considerably restored; EC50 ([4]; Homo sapiens, Jurkat, no metal, incubation 24 h (Figure S4), read-out: EC50 against Jurkat cells, ligand alone): 8.6 µM
	O=[N+]([O-])[O-].O=[N+]([O-])[O-].[Co+2] [Co^2+, Co(NO3)2]								EC50 ([4]; no ligand, incubation 48 h (Figure 9a), read-out: EC50 of ligand-free metal ion against Jurkat cells): 13 µM
	c1ccc(CN(CCN(Cc2ccccn2)Cc2ccccn2)Cc2ccccn2)nc1 [TPEN, N,N,N′,N′-tetra(2-pyrydylmethyl)ethylene diamine]								EC50 [9]: ~8 µM
	Cc1c2oc3c(C)ccc(C(=O)N[C@@H]4C(=O)N[C@H](C(C)C)C(=O)N5CCC[C@H]5C(=O)N(C)CC(=O)N(C)[C@@H](C(C)C)C(=O)O[C@@H]4C)c3nc-2c(C(=O)N[C@@H]2C(=O)N[C@H](C(C)C)C(=O)N3CCC[C@H]3C(=O)N(C)CC(=O)N(C)[C@@H](C(C)C)C(=O)O[C@@H]2C)c(N)c1=O [actinomycin D, reference compound] (I: T[dV]P[Sar][NMeV] / II: T[dV]P[Sar][NMeV]; ester I:1-I:C, II:1-II:C; linker I:N-II:N via Actinocin(9to1))								EC50 ([2]; MOLT-4, 24 h): 0.003 µM; EC50 ([3]; U-937, 24 h): 0.051 µM; EC50 ([5]; HeLa S3, 24 h, read-out: EC50 against HeLa S3): > 10 µM; EC50 ([6]; IMR-90, 24 h): 53 ± 2.6 µM; EC50 ([7]; 24 h, read-out: EC50 against Jurkat): 0.005 µM
135 to 136 °C	c1ccc(-c2ccc(OCc3cccc(COc4ccc(-c5ccccn5)nc4)c3)cn2)nc1 [compound 2, 1,3-Bis(([2,2′-Bipyridin]-5-yloxy)methyl)benzene]	0.64 ± 0.55 µM	0.59 ± 0.33 µM	~0.1 µM	15 ± 1.34 µM	> 100 µM	0.77 ± 0.56 µM	9.5 ± 1.2 µM	EC50 ([4]; Homo sapiens, Jurkat, no metal, incubation 12 h (Figure 9), read-out: EC50 against Jurkat cells, metal-free ligand): ~2 µM
85 to 87 °C	c1ccc(COc2ccc(-c3ccccn3)nc2)cc1 [compound 3, 5-(Benzyloxy)-2,2′-bipyridine]	8.7 ± 0.89 µM	5.6 ± 0.77 µM		15 ± 0.37 µM	75 ± 0.1 µM	13 ± 0.34 µM	11 ± 0.55 µM	

From paper PMC10498496, “Design and Synthesis of Poly(2,2′-Bipyridyl) Ligands for Induction of Cell Death in Cancer Cells: Control of Anticancer Activity by Complexation/Decomplexation with Biorelevant Metal Cations” (Inorganic Chemistry, 2023)
